Legend:
[1] = assay type: physicochemical
Source text: As such, rimiducid is categorized as a biopharmaceutical classification system (BCS) class IV drug. Although there are exceptions, BCS class IV compounds generally are viewed as poor candidates for oral delivery (Markovic et al., Pharmaceutics 2020, 12(12), 1175. doi.org/10.3390/pharmaceutics12121175). For a compound to be absorbed, it must first be in solution. […] Once solubilized, rimiducid must cross the plasma membranes of the intestinal tract to be absorbed. […] Because of the molecular weight of 1411.6 Da, passive absorption of rimiducid through the intestinal aqueous porin channels is unlikely (Dahlgren et al., Pharmaceutics. 2019; 11(8):411. Published 2019 Aug. 13. doi:10.3390/pharmaceutics11080411).

[2] = Drug Bank Online; cited from earlier work
[3] = class IV characterisation, aqueous solubility; cited from earlier work

theoretical maximal solubility of rimiducid within the upper GI tract [1]: less than 250 μg
SMILES: CC[C@H](C(=O)N1CCCC[C@H]1C(=O)O[C@H](CCc1ccc(OC)c(OC)c1)c1cccc(OCC(=O)NCCNC(=O)COc2cccc([C@@H](CCc3ccc(OC)c(OC)c3)OC(=O)[C@@H]3CCCCN3C(=O)[C@@H](CC)c3cc(OC)c(OC)c(OC)c3)c2)c1)c1cc(OC)c(OC)c(OC)c1 [Rimiducid, rimiducid]
water solubility [2]: less than 0.5 μg/mL
volume required to dissolve an effective dose [3]: greater than 250 milliliters

Source: patent US20250161288A1, “MULTIMERIZER PHARMACEUTICAL COMPOSITIONS” (PONCE THERAPEUTICS, INC., priority 2022, published 2025)
